Data published in US11931424B2, “Combination MCL-1 inhibitors with anti-body drug conjugates” (Gilead Sciences, Inc., priority 2021, dated 2024).

Tested on: panel of breast cancer cell lines
Assay: Compound A with targeted agents and chemotherapies, 72-hour in vitro proliferation assays
Type: cell-based
[1] = BT-20 cell line, compound A × partner, 72-hour proliferation
[2] = CAL-51 cell line, compound A × partner, 72-hour proliferation
[3] = CAL-85-1 cell line, compound A × partner, 72-hour proliferation
[4] = CAL-120 cell line, compound A × partner, 72-hour proliferation
[5] = CAL-148 cell line, compound A × partner, 72-hour proliferation
[6] = CAMA-1 cell line, compound A × partner, 72-hour proliferation
[7] = DU-4475 cell line, compound A × partner, 72-hour proliferation
[8] = EVSA-T cell line, compound A × partner, 72-hour proliferation
[9] = HCC38, compound A × partner, 72-hour proliferation
[10] = HCC70, compound A × partner, 72-hour proliferation
[11] = HCC1143 cell line, compound A × partner, 72-hour proliferation
[12] = HCC1569, compound A × partner, 72-hour proliferation
[13] = HCC1806, compound A × partner, 72-hour proliferation
[14] = HCC1937, compound A × partner, 72-hour proliferation
[15] = HCC1954, compound A × partner, 72-hour proliferation
[16] = HCC2218, compound A × partner, 72-hour proliferation
[17] = HDQ-P1, compound A × partner, 72-hour proliferation
[18] = HMC-1-8, compound A × partner, 72-hour proliferation
[19] = JIMT-1, compound A × partner, 72-hour proliferation
[20] = AU565 cell line, compound A × partner, 72-hour proliferation
[21] = KPL-1, compound A × partner, 72-hour proliferation

For `CC1(C)CCC(CN2CCN(c3ccc(C(=O)NS(=O)(=O)c4ccc(NCC5CCOCC5)c([N+](=O)[O-])c4)c(Oc4cnc5[nH]ccc5c4)c3)CC2)=C(c2ccc(Cl)cc2)C1` [ABT-199], the “Best CI” value (72 h) was 1.23, the “Bliss Volume” value (72 h) was −1.15 and the HSA volume (72 h) was −2.69. The “Loewe Volume” value (72 h) was −0.11, the “Synergy Score” value (72 h) was 3.31 and the “Best CI” value [1] was 0.62. For the same compound, the “Bliss Volume” value [1] was 6.83, the HSA volume [1] was 5.47 and the “Loewe Volume” value [1] was 5.94. For the same compound, the “Synergy Score” value [1] was 13.39, the “Best CI” value [2] was 0.58 and the “Bliss Volume” value [2] was 0.44. The HSA volume [2] was −2.62, the “Loewe Volume” value [2] was 0.83 and the “Synergy Score” value [2] was 0.56. For the same compound, the “Best CI” value [3] was 0.83, the “Bliss Volume” value [3] was −1.49 and the HSA volume [3] was −2.11. For the same compound, the “Loewe Volume” value [3] was −1.27, the “Synergy Score” value [3] was 1.08 and the “Best CI” value [4] was 0.85. The “Bliss Volume” value [4] was 3.85, the HSA volume [4] was −1.21 and the “Loewe Volume” value [4] was −0.16. For the same compound, the “Synergy Score” value [4] was 0.62, the “Best CI” value [5] was 0.47 and the “Bliss Volume” value [5] was 3.32. For the same compound, the HSA volume [5] was −0.66, the “Loewe Volume” value [5] was 3.11 and the “Synergy Score” value [5] was 2.74. The “Best CI” value [6] was 0.38, the “Bliss Volume” value [6] was 8.30 and the HSA volume [6] was 4.83. The “Loewe Volume” value [6] was 8.10, the “Best CI” value [7] was 1.15 and the “Bliss Volume” value [7] was 10.43. For the same compound, the HSA volume [7] was 8.46, the “Loewe Volume” value [7] was 10.37 and the “Synergy Score” value [7] was 10.64. For the same compound, the “Best CI” value [8] was 1.07, the “Bliss Volume” value [8] was 1.29 and the HSA volume [8] was −0.86. The “Loewe Volume” value [8] was 0.99, the “Synergy Score” value [8] was 4.67 and the “Best CI” value [9] was 0.77. The “Bliss Volume” value [9] was −3.14, the HSA volume [9] was −0.71 and the “Loewe Volume” value [9] was 0.50. The “Synergy Score” value [9] was 5.65, the “Best CI” value [10] was 0.43 and the “Bliss Volume” value [10] was 15.68. The HSA volume [10] was 14.46, the “Loewe Volume” value [10] was 15.44 and the “Synergy Score” value [10] was 28.95. The “Best CI” value [11] was 0.82, the “Bliss Volume” value [11] was 2.43 and the HSA volume [11] was −2.65. The “Loewe Volume” value [11] was −1.50, the “Synergy Score” value [11] was 3.01 and the “Best CI” value [12] was 0.51. For the same compound, the “Bliss Volume” value [12] was 15.86, the HSA volume [12] was 14.50 and the “Loewe Volume” value [12] was 16.04. For the same compound, the “Synergy Score” value [12] was 14.35, the “Best CI” value [13] was 0.83 and the “Bliss Volume” value [13] was 3.80. For the same compound, the HSA volume [13] was 4.70, the “Loewe Volume” value [13] was 5.23 and the “Synergy Score” value [13] was 6.31. The “Best CI” value [14] was 0.22, the “Bliss Volume” value [14] was 8.42 and the HSA volume [14] was 2.68. For the same compound, the “Loewe Volume” value [14] was 4.59, the “Synergy Score” value [14] was 1.43 and the “Best CI” value [15] was 0.60. For the same compound, the “Bliss Volume” value [15] was 12.55, the HSA volume [15] was 10.72 and the “Loewe Volume” value [15] was 12.18. The “Synergy Score” value [15] was 17.16, the “Best CI” value [16] was 0.43 and the “Bliss Volume” value [16] was 7.82. The HSA volume [16] was 8.19, the “Loewe Volume” value [16] was 7.59 and the “Synergy Score” value [16] was 15.06. The “Best CI” value [17] was 0.04, the “Bliss Volume” value [17] was 1.77 and the HSA volume [17] was 0.38. The “Loewe Volume” value [17] was 1.74, the “Synergy Score” value [17] was 0.96 and the “Best CI” value [18] was 0.90. The “Bliss Volume” value [18] was 6.70, the HSA volume [18] was 5.15 and the “Loewe Volume” value [18] was 6.08. The “Synergy Score” value [18] was 9.51, the “Best CI” value [19] was 0.14 and the “Bliss Volume” value [19] was −1.41. For the same compound, the HSA volume [19] was −2.60, the “Loewe Volume” value [19] was −1.93 and the “Synergy Score” value [19] was 0.53. The “Synergy Score” value (MCF7 cells, Compound A × partner agent, 72-hour proliferation) was 1.43.
`CC1(C)CCC(c2ccc(Cl)cc2)=C(CN2CCN(c3ccc(C(=O)NS(=O)(=O)c4ccc(N[C@H](CCN5CCOCC5)CSc5ccccc5)c(S(=O)(=O)C(F)(F)F)c4)cc3)CC2)C1` [ABT-263] was tested, and the “Best CI” value [20] was 0.61, the “Bliss Volume” value [20] was 9.56 and the HSA volume [20] was 3.63. The “Loewe Volume” value [20] was 8.42, the “Synergy Score” value [20] was 14.69 and the “Best CI” value [1] was 0.05. The “Bliss Volume” value [1] was 36.91, the HSA volume [1] was 37.77 and the “Loewe Volume” value [1] was 37.81. For the same compound, the “Synergy Score” value [1] was 84.06, the “Best CI” value [2] was 0.09 and the “Bliss Volume” value [2] was 18.29. The HSA volume [2] was 17.50, the “Loewe Volume” value [2] was 18.72 and the “Synergy Score” value [2] was 39.59. For the same compound, the “Best CI” value [3] was 0.17, the “Bliss Volume” value [3] was 13.36 and the HSA volume [3] was 16.06. The “Loewe Volume” value [3] was 15.97, the “Synergy Score” value [3] was 29.64 and the “Best CI” value [4] was 0.21. The “Bliss Volume” value [4] was 15.10, the HSA volume [4] was 15.51 and the “Loewe Volume” value [4] was 16.04. For the same compound, the “Synergy Score” value [4] was 24.96, the “Best CI” value [5] was 0.10 and the “Bliss Volume” value [5] was 28.25. For the same compound, the HSA volume [5] was 22.50, the “Loewe Volume” value [5] was 27.96 and the “Synergy Score” value [5] was 51.82. The “Best CI” value [6] was 0.14, the “Bliss Volume” value [6] was 19.67 and the HSA volume [6] was 17.49. The “Loewe Volume” value [6] was 19.32, the “Synergy Score” value [6] was 41.66 and the “Best CI” value [7] was 0.48. For the same compound, the “Bliss Volume” value [7] was 24.62, the HSA volume [7] was 22.37 and the “Loewe Volume” value [7] was 22.67. The “Synergy Score” value [7] was 35.34, the “Best CI” value [8] was 0.36 and the “Bliss Volume” value [8] was 15.42. The HSA volume [8] was 14.19, the “Loewe Volume” value [8] was 14.63 and the “Synergy Score” value [8] was 28.16. For the same compound, the “Best CI” value [9] was 0.13, the “Bliss Volume” value [9] was 27.10 and the “Synergy Score” value [9] was 37.11. The “Best CI” value [10] was 0.03, the “Bliss Volume” value [10] was 44.63 and the HSA volume [10] was 44.49. For the same compound, the “Loewe Volume” value [10] was 44.97, the “Synergy Score” value [10] was 97.06 and the “Best CI” value [11] was 0.05. The “Bliss Volume” value [11] was 27.56, the HSA volume [11] was 26.07 and the “Loewe Volume” value [11] was 27.51. For the same compound, the “Synergy Score” value [11] was 43.54, the “Best CI” value [12] was 0.13 and the “Bliss Volume” value [12] was 27.53. For the same compound, the HSA volume [12] was 24.55, the “Loewe Volume” value [12] was 26.18 and the “Synergy Score” value [12] was 46.64. The “Best CI” value [13] was 0.03, the “Bliss Volume” value [13] was 45.40 and the HSA volume [13] was 46.37. The “Loewe Volume” value [13] was 46.26, the “Synergy Score” value [13] was 90.68 and the “Best CI” value [14] was 0.18. For the same compound, the “Bliss Volume” value [14] was 26.87, the HSA volume [14] was 22.28 and the “Loewe Volume” value [14] was 26.31. For the same compound, the “Synergy Score” value [14] was 43.69, the “Best CI” value [15] was 0.03 and the “Bliss Volume” value [15] was 36.37. The HSA volume [15] was 36.78, the “Loewe Volume” value [15] was 37.10 and the “Synergy Score” value [15] was 76.44. For the same compound, the “Best CI” value [16] was 0.07, the “Bliss Volume” value [16] was 28.59 and the HSA volume [16] was 29.77. For the same compound, the “Loewe Volume” value [16] was 28.05, the “Synergy Score” value [16] was 59.76 and the “Best CI” value [17] was 0.09. For the same compound, the “Bliss Volume” value [17] was 27.19, the HSA volume [17] was 27.41 and the “Loewe Volume” value [17] was 28.17. For the same compound, the “Synergy Score” value [17] was 52.33, the “Best CI” value [18] was 0.20 and the “Bliss Volume” value [18] was 13.21. For the same compound, the HSA volume [18] was 10.36, the “Loewe Volume” value [18] was 11.80 and the “Synergy Score” value [18] was 21.09. For the same compound, the “Best CI” value [19] was 0.18, the “Bliss Volume” value [19] was 18.71 and the HSA volume [19] was 12.60. For the same compound, the “Loewe Volume” value [19] was 14.35, the “Synergy Score” value [19] was 19.55 and the “Best CI” value [21] was 0.14. For the same compound, the “Synergy Score” value [21] was 13.50.
